This experiment relates to LTB4 biosynthesis in human polymorphonuclear leukocytes (PMNs). Briefly: Inhibition of LTB4 biosynthesis in human polymorphonuclear leukocytes (PMNs). Format: cell-based. As to the method:
Inhibition of LTB4, biosynthesis in human polymorphonuclear leukocytes (PMNs)
The inhibition of leukotriene biosynthesis is measured by determining whether and to what extent test compounds can inhibit LTB4 production from endogenous arachidonic acid in human peripheral blood leukocytes.
To 48-well tissue culture plates was added a solution of the test compound followed by addition of human polymorphonuclear leukocytes isolated from peripheral blood at a density of 1.5×10^6 cells/well. Culture plates were preincubated for fifteen minutes with shaking at 28° C. Cells were stimulated with calcium ionophore A23187 at a final concentration of 2.5 μM for an additional ten minutes. The reaction was terminated by the addition of an EGTA solution (10 mM final concentration)followed by centrifugation at 1500 rpm at 10° C. Supernatants were stored at -70° C. LTB4 levels were determined by RIA using a commercially available kit. Nonlinear regression analysis was used to calculate. IC50 values.
The following tables show % inhibition of LTB4 biosynthesis by compounds of the invention at test concentrations indicated, with the determined IC50 shown in μM.

Where [1] appears, read: Leukocyte, Table 1, Esters, LTB4, A23187-stimulated human PMNs, values with < (footnote d): greater than 50% (504 [sic]) inhibition at this concentration, IC50 not characterized further.
Where [2] appears, read: Homo sapiens, Leukocyte, Table 6, Methyloxadiazole, values with <: see footnote d, Table 1.
[3] abbreviates: Homo sapiens, Leukocyte, Table 9, Miscellaneous Heterocycle, values with <: see footnote d, Table 1.
Where [4] appears, read: Table 10, Oxazolopyridines, values with <: see footnote d, Table 1.
The mark [5] stands for this setting: Homo sapiens, Leukocyte, Table 2, Amides, values with <: see footnote d, Tables 1 and 1A.
Setting [6] is: Homo sapiens, Leukocyte, Table 8, Miscellaneous Acyclic, values with <: see footnote d, Table 1.
Where [7] appears, read: Table 4, Pyridyl, values with <: see footnote d, Table 1.
Setting [8] is: Homo sapiens, Leukocyte, Table 11, Thiazolopyridines, values with <: see footnote d, Table 1.
Where [9] appears, read: Homo sapiens, Leukocyte, Table 4, Pyridyl, values with <: see footnote d, Table 1.
Setting [10] is: Homo sapiens, Leukocyte, Table 3, Phenyl, values with <: see footnote d, Table 1.
Setting [11] is: Homo sapiens, Leukocyte, Table 1A, Esters, LTB4, A23187-stimulated human PMNs.
Where [12] appears, read: Homo sapiens, Leukocyte, Table 10, Oxazolopyridines, values with <: see footnote d, Table 1.

Where only a bound is given, the exact number is not on record here.

What is called IC50 is the concentration that gives 50% inhibition. Regarding `CCOC(=O)[C@H](CC1CCCCC1)Nc1nc2ccccc2s1` [Compound 16], the IC50 under setting [1] was 6 nM.

Under setting [1], `CCOC(=O)[C@@H](Cc1ccccc1)Nc1nc2ccccc2o1` [Compound 18] registered a 50% inhibitory concentration (IC50) of 1500 nM.

Consider `Cc1noc(C(Cc2csc(C)n2)Nc2nc3cc(C(C)C)ccc3o2)n1` (centres unmarked) [Compound 127], for which, under setting [2], the half-inhibitory concentration (IC50) was under 1000 nM.

With `Cc1nc(CC(Nc2nc3cc(C(C)C)ccc3o2)c2ncc[nH]2)cs1` (centres unmarked) [Compound 157], under setting [3], the IC50 was under 1000 nM.

Consider `CCOC(=O)C(Cc1ccncc1)Nc1nc2cc(C(C)C)ccc2o1` (centres unmarked) [Compound 31], for which the IC50 under setting [1] was under 100 nM.

Compound `Cc1ccc2oc(NC(CC3CCCCC3)c3ccccn3)nc2n1` (single isomer, unassigned) [Compound 166] yielded a concentration for half-maximal inhibition (IC50) under setting [4] of 15 nM.

Turning to `Cc1csc(C(Cc2cccc(Cl)c2)Nc2nc3cc(C(C)C)ccc3o2)n1` (centres unmarked) [Compound 160], under setting [3], the 50% inhibitory concentration (IC50) is under 30 nM.

As to `CCNC(=O)C(Cc1ccccc1)Nc1nc2ccc(C(C)C)cc2s1` (centres unmarked) [Compound 42], the IC50 under setting [5] was found to be 3000 nM.

The compound `CC(C)c1ccc2oc(N[C@H](CNS(=O)(=O)N(C)C)Cc3ccccc3)nc2c1` [Compound 152] had a concentration for half-maximal inhibition (IC50) under setting [6] of under 100 nM.

Consider `Cc1ccc2oc(NC(CC3CCCCC3)c3cccnc3)nc2c1` (single isomer, unassigned) [Compound 90], for which the concentration for half-maximal inhibition (IC50) under setting [7] was under 1000 nM.

Under setting [8], `Fc1ccc(CC(Nc2nc3ncc(Cl)cc3s2)c2ccccn2)cc1` (centres unmarked) [Compound 189] showed an IC50 of 28 nM.

With `O=[N+]([O-])c1ccc2nc(NC(CC3CCCCC3)c3cccnc3)oc2c1` (centres unmarked) [Compound 84], under setting [9], the IC50 turned out to be 35 nM.

Compound `CCOC(=O)C(Cc1ccccc1)Nc1nc2ccccc2s1` (racemic) [Compound 4, DL-N-(Benzothiazol-2-yl)phenylalanine ethyl ester] displayed a half-inhibitory concentration (IC50) under setting [1] of 400 nM.

Under setting [6], `CNC(=O)OC[C@H](Cc1ccccc1)Nc1nc2cc(C(C)C)ccc2o1` [Compound 154] displayed an IC50 of 63 nM.

Compound `CCOCC(Cc1ccc(F)cc1)Nc1nc2cc(C(C)C)ccc2o1` (centres unmarked) [Compound 137] showed an IC50 under setting [6] of under 30 nM.

`Fc1ccc2oc(NC(CC3CCCCC3)c3ccccn3)nc2c1` (centres unmarked) [Compound 109] had an IC50 under setting [9] of 2 nM.

For `COC(=O)[C@@H](Cc1ccccc1)Nc1nc2ccc(C(C)C)cc2s1` [Compound 10], the IC50 under setting [1] came to 650 nM.

Compound `FC(F)(F)c1ccc2oc(NC(CC3CCCCC3)c3ccccn3)nc2c1` (centres unmarked) [Compound 95] returned a half-maximal inhibitory concentration (IC50) under setting [9] of 1.2 nM.

On to `CNC(=O)Nc1ccc2oc(NC(CC3CCCCC3)c3ccccc3)nc2c1` (centres unmarked) [Compound 62], for which the half-inhibitory concentration (IC50) under setting [10] was under 1000 nM.

In turn, `COCC(Cc1ccc(F)cc1)Nc1nc2cc(C(C)C)ccc2o1` (centres unmarked) [Compound 136] gave an IC50 under setting [6] of under 30 nM.

Regarding `CCOC(=O)C(Cc1ccc(Cl)cc1)Nc1nc2ccc(C(C)C)cc2s1` (racemic) [Compound 7, DL-N-(6-Isopropylbenzothiazol-2-yl)-4-chlorophenylalanine ethyl ester], under setting [1], the IC50 stood at 330 nM.

The compound `Cc1noc([C@H](Cc2ccccc2)Nc2nc3ccccc3s2)n1` [Compound 122] yielded a concentration for half-maximal inhibition (IC50) under setting [2] of 1800 nM.

Under setting [8], `c1ccc(C(CC2CCCCC2)Nc2nc3cccnc3s2)nc1` (centres unmarked) [Compound 174] gave a half-maximal inhibitory concentration (IC50) of 27 nM.

As to `Fc1ccc(C(CC2CCCCC2)Nc2nc3ccccc3o2)cc1` (centres unmarked) [Compound 71], the IC50 under setting [10] stood at 170 nM.

As for `c1ccc(C(CC2CCCCC2)Nc2nc3cccnc3s2)cc1` (centres unmarked) [Compound 172, 2-[(2-Cyclohexyl-1-phenylethyl)amino]thiazolo[5,4-b]pyridine], inhibition under setting [8] was half-maximal at 27 nM (IC50).

Take `CC(C)c1ccc2oc(NC(Cc3cccc(Cl)c3)c3nccn3C)nc2c1` (centres unmarked) [Compound 202]: the half-inhibitory concentration (IC50) (Homo sapiens, Leukocyte, Table 14, Miscellaneous Compounds, values with <: see footnote d, Table 1) was under 100 nM.

For the compound `CSCC(Cc1cccnc1)Nc1nc2cc(C(C)C)ccc2o1` (centres unmarked) [Compound 143], the concentration for half-maximal inhibition (IC50) under setting [6] was under 1000 nM.

Take `Fc1ccc(CC(Nc2nc3cc(Cl)ccc3s2)c2ccccn2)cc1` (centres unmarked) [Compound 96]: it took 27 nM to reach half-maximal inhibition under setting [9] (IC50).

Compound `CC(C)c1ccc2oc(NC(Cc3ccccc3)CS(C)(=O)=O)nc2c1` (centres unmarked) [Compound 146] registered a half-inhibitory concentration (IC50) under setting [6] of under 30 nM.

`CCOC(=O)C(Cc1ccccc1)N(C)c1nc2ccccc2s1` (centres unmarked) [Compound 36] came in with an IC50 under setting [11] of 1000 nM.

Under setting [1], `CCCCc1ccc2nc(NC(Cc3ccc(Cl)cc3)C(=O)OCC)sc2c1` (centres unmarked) [Compound 11] yielded a half-maximal inhibitory concentration (IC50) of 170 nM.

In turn, `CC(C)c1ccc2oc(N[C@@H](Cc3ccccc3)CN(C)C)nc2c1` [Compound 150] registered an IC50 under setting [6] of under 300 nM.

On to `CCc1ccc2sc(N[C@@H](Cc3ccccc3)c3nc(C)no3)nc2c1` [Compound 123], for which the concentration for half-maximal inhibition (IC50) under setting [2] was under 1000 nM.

With `NC(=O)c1ccc2oc(NC(CC3CCCCC3)c3ccccc3)nc2c1` (centres unmarked) [Compound 64], the half-inhibitory concentration (IC50) under setting [10] was under 1000 nM.

In the case of `COC(=O)c1ccc2oc(NC(CC3CCCCC3)c3ccccn3)nc2c1` (centres unmarked) [Compound 92], the 50% inhibitory concentration (IC50) under setting [9] came out at 12 nM.

Under setting [12], `c1ccc(C(CC2CCCCC2)Nc2nc3cccnc3o2)cc1` (centres unmarked) [Compound 170] came in with an IC50 of 21 nM.

Under setting [9], `Cc1nc(CC(Nc2nc3cc(C(C)C)ccc3o2)c2ccccn2)cs1` (centres unmarked) [Compound 116] came in with a half-inhibitory concentration (IC50) of under 100 nM.

Regarding `FC(F)(F)c1ccc2oc(NC(CC3CCCCC3)c3ccccn3)nc2c1` (centres unmarked) [Compound 108], the midpoint of inhibition under setting [7], the IC50, lay at 1 nM.

As to `O=[N+]([O-])c1ccc2oc(NC(Cc3ccc(F)cc3)c3ccccn3)nc2c1` (centres unmarked) [Compound 115], under setting [9], the half-maximal inhibitory concentration (IC50) was under 30 nM.

The compound `Cc1ccc2oc(N[C@@H](CC3CCCCC3)C(=O)N3CCCCC3)nc2c1` [Compound 46] registered a 50% inhibitory concentration (IC50) under setting [5] of 190 nM.

As for `Fc1ccc2oc(NC(Cc3cccc(Cl)c3)c3ccccn3)nc2c1` (centres unmarked) [Compound 105], the half-maximal inhibitory concentration (IC50) under setting [9] was under 30 nM.

As to `CC(C)c1ccc2oc(NC(Cc3ccc(Cl)cc3)c3ccccn3)nc2c1` (centres unmarked) [Compound 98], under setting [9], the 50% inhibitory concentration (IC50) worked out at 29 nM.

On to `Cc1noc(C(Cc2ccccc2)Nc2nc3ccccc3s2)n1` (centres unmarked) [Compound 121], for which the half-inhibitory concentration (IC50) under setting [2] was 1300 nM.

Under setting [7], `Fc1ccc(CC(Nc2nc3cc(Cl)ccc3o2)c2ccccn2)cc1` (single isomer, unassigned) [Compound 118] registered an IC50 of 10 nM.

Under setting [10], `N#Cc1ccc2oc(NC(CC3CCCCC3)c3ccccc3)nc2c1` (centres unmarked) [Compound 67] had an IC50 of 150 nM.

In the case of `Cc1ccc2oc(NC(CC3CCCCC3)c3cccnc3)nc2c1` (centres unmarked) [Compound 82], the IC50 under setting [9] turned out to be 24 nM.

The compound `c1ccc(CC(Nc2nc3ccccc3o2)c2ccccc2)cc1` (centres unmarked) [Compound 50] yielded an IC50 under setting [10] of under 1000 nM.

For `CCOC(=O)C(Cc1csc(C)n1)Nc1nc2cc(Cl)ccc2o1` (centres unmarked) [Compound 29], the IC50 under setting [1] was determined as 87 nM.

`COC(=O)[C@@H](CC1CCCCC1)Nc1nc2cc(C)ccc2o1` [Compound 26] displayed an IC50 under setting [1] of 16 nM.

In turn, `Cc1ccc2oc(NC(CC3CCCCC3)c3ccccn3)nc2n1` (single isomer, unassigned) [Compound 167] came in with an IC50 under setting [4] of 170 nM.

`Fc1ccc(CC(Nc2nc3cc(Cl)ccc3o2)c2ccccn2)cc1` (single isomer, unassigned) [Compound 119] yielded an IC50 under setting [7] of 320 nM.

With `O=[N+]([O-])c1ccc2oc(NC(CC3CCCCC3)c3cccnc3)nc2c1` (centres unmarked) [Compound 85], it took 24 nM to reach half-maximal inhibition under setting [9] (IC50).

Turning to `Cc1ccc2oc(NC(CC3CCCCC3)c3cccnc3)nc2n1` (centres unmarked) [Compound 168], 300 nM corresponded to half-maximal inhibition under setting [12] (IC50).

On to `CCOC(=O)C(C)(Cc1ccccc1)Nc1nc2ccccc2o1` (centres unmarked) [Compound 39], for which the half-inhibitory concentration (IC50) under setting [11] worked out at 76 nM.

Take `CC(C)c1ccc2oc(NC(Cc3cccnc3)CS(C)(=O)=O)nc2c1` (centres unmarked) [Compound 147]: the 50% inhibitory concentration (IC50) under setting [6] was under 1000 nM.

In the case of `CCOC(=O)C(Cc1ccc(F)cc1)Nc1nc2ccccc2s1` (centres unmarked) [Compound 2], under setting [1], the 50% inhibitory concentration (IC50) was found to be 330 nM.

For the origin of these results see US5552421A, “Leukotriene biosynthesis inhibitors” (Boehringer Ingelheim Pharmaceuticals, Inc., priority 1995, dated 1996).
